Key:
Type in all cases: in vivo
[1] = tested on: ABUTH: Abutilon theophrasti; experiment: Post-emergence herbicidal effect
In short: (§1)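 Visual rating, made about 3 weeks after treatment against untreated plants, runs from 0% (like controls) to 100% (plants dead). WP or EC formulations were applied post-emergence as aqueous spray at 600 l/ha with 0.5% additive. Plants were at the one-leaf stage, 2 to 3 weeks after sowing in sandy loam.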

[2] = tested on: ALOMY: Alopecurus myosuroides; experiment: Post-emergence herbicidal effect
In short: as §1

[3] = tested on: ECHCG: Echinochloa crus-galli; experiment: Post-emergence herbicidal effect
In short: as §1

HORMU: Hordeum murinum [4] = experiment: Post-emergence herbicidal effect
In short: as §1

LOLRI: Lolium rigidum [5] = experiment: Post-emergence herbicidal effect
In short: as §1

PHBPU: Ipomoea purpurea [6] = experiment: Post-emergence herbicidal effect
In short: as §1

[7] = tested on: POLCO: Polygonum convolvulus; experiment: Post-emergence herbicidal effect
In short: as §1

SETVI: Setaria viridis [8] = experiment: Post-emergence herbicidal effect
In short: as §1

[9] = tested on: AMARE: Amaranthus retroflexus; experiment: Pre-emergence herbicidal effect; settings: pre-emergence
In short: (§2)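 Visual percent scoring against untreated pots after roughly 3 weeks in the greenhouse (100% = dead, 0% = no effect). Treatment was a pre-emergence soil-surface spray of WP or EC formulations in water plus 0.5% additive, 600 l/ha.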

[10] = tested on: MATIN: Matricaria inodora; experiment: Pre-emergence herbicidal effect; settings: pre-emergence; dosage 320 g/ha
In short: as §2

[11] = tested on: POLCO: Polygonum convolvulus; experiment: Pre-emergence herbicidal effect
In short: as §2

VERPE: Veronica persica [12] = experiment: Pre-emergence herbicidal effect; settings: dosage 320 g/ha
In short: as §2

VIOTR: Viola tricolor [13] = experiment: Pre-emergence herbicidal effect; settings: dosage 320 g/ha
In short: as §2

[14] = tested on: AMARE: Amaranthus retroflexus; experiment: Post-emergence herbicidal effect
In short: as §1

AVEFA: Avena fatua [15] = experiment: Post-emergence herbicidal effect
In short: as §1

STEME: Stellaria media [16] = experiment: Post-emergence herbicidal effect
In short: as §1

VERPE: Veronica persica [17] = experiment: Post-emergence herbicidal effect; settings: dosage 320 g/ha
In short: as §1

VIOTR: Viola tricolor [18] = experiment: Post-emergence herbicidal effect
In short: as §1

[19] = tested on: ABUTH: Abutilon theophrasti; experiment: Pre-emergence herbicidal effect
In short: as §2

[20] = tested on: ALOMY: Alopecurus myosuroides; experiment: Pre-emergence herbicidal effect; settings: pre-emergence
In short: as §2

AVEFA: Avena fatua [21] = experiment: Pre-emergence herbicidal effect
In short: as §2

CYPES = experiment: Pre-emergence herbicidal effect
In short: as §2

[22] = tested on: ECHCG: Echinochloa crus-galli; experiment: Pre-emergence herbicidal effect; settings: pre-emergence
In short: as §2

HORMU: Hordeum murinum [23] = experiment: Pre-emergence herbicidal effect; settings: pre-emergence
In short: as §2

LOLRI: Lolium rigidum [24] = experiment: Pre-emergence herbicidal effect
In short: as §2

PHBPU: Ipomoea purpurea [25] = experiment: Pre-emergence herbicidal effect
In short: as §2

SETVI: Setaria viridis [26] = experiment: Pre-emergence herbicidal effect; settings: pre-emergence
In short: as §2

STEME: Stellaria media [27] = experiment: Pre-emergence herbicidal effect; settings: pre-emergence; dosage 320 g/ha
In short: as §2

[28] = tested on: MATIN: Matricaria inodora; experiment: Post-emergence herbicidal effect
In short: as §1

Cc1ccc2c(c1)[C@H](Nc1ncc([C@H](C)O)c(N)n1)[C@@H](C)C2 (racemic) [drawing 14, reference compound]
20%: Herbicidal action against HORMU (HORMU: Hordeum murinum [4]; dosage 320 g/ha) | Herbicidal action against PHBPU (PHBPU: Ipomoea purpurea [6]; dosage 80 g/ha)
10%: Herbicidal action against ABUTH ([1]; dosage 80 g/ha)
60%: Herbicidal action against ABUTH ([1]; dosage 320 g/ha) | Herbicidal action against POLCO ([7]; dosage 80 g/ha) | Herbicidal action against POLCO ([7]; dosage 320 g/ha) | Herbicidal action against SETVI (SETVI: Setaria viridis [8]; dosage 80 g/ha)
30%: Herbicidal action against LOLRI (LOLRI: Lolium rigidum [5]; dosage 80 g/ha)
0%: Herbicidal action against ALOMY ([2]; dosage 80 g/ha) | Herbicidal action against ECHCG ([3]; dosage 80 g/ha) | Herbicidal action against HORMU (HORMU: Hordeum murinum [4]; dosage 80 g/ha)
80%: Herbicidal action against PHBPU (PHBPU: Ipomoea purpurea [6]; dosage 320 g/ha)
70%: Herbicidal action against ALOMY ([2]; dosage 320 g/ha) | Herbicidal action against LOLRI (LOLRI: Lolium rigidum [5]; dosage 320 g/ha)

Cc1ccc2c(c1)[C@H](Nc1ncc(C(C)O)cn1)[C@@H](C)C2 (stereo partly drawn) [Example 1.2]
80%: Herbicidal action against ABUTH ([1]; dosage 320 g/ha) | Herbicidal action against AVEFA (AVEFA: Avena fatua [15]; dosage 320 g/ha) | Herbicidal action against VIOTR (VIOTR: Viola tricolor [18]; dosage 320 g/ha)
100%: Herbicidal action against AMARE ([9]; dosage 320 g/ha) | Herbicidal action against MATIN [10] | Herbicidal action against POLCO ([11]; dosage 320 g/ha) | Herbicidal action against VERPE (VERPE: Veronica persica [12]) | Herbicidal action against VIOTR (VIOTR: Viola tricolor [13]) | Herbicidal action against AMARE ([14]; dosage 80 g/ha) | Herbicidal action against AMARE ([14]; dosage 320 g/ha) | Herbicidal action against ECHCG ([3]; dosage 320 g/ha) | Herbicidal action against STEME (STEME: Stellaria media [16]; dosage 320 g/ha)
40%: Herbicidal action against ECHCG ([3]; dosage 80 g/ha) | Herbicidal action against PHBPU (PHBPU: Ipomoea purpurea [6]; dosage 80 g/ha)
90%: Herbicidal action against POLCO ([7]; dosage 80 g/ha) | Herbicidal action against POLCO ([7]; dosage 320 g/ha) | Herbicidal action against SETVI (SETVI: Setaria viridis [8]; dosage 80 g/ha) | Herbicidal action against SETVI (SETVI: Setaria viridis [8]; dosage 320 g/ha) | Herbicidal action against STEME (STEME: Stellaria media [16]; dosage 80 g/ha) | Herbicidal action against VERPE (VERPE: Veronica persica [17])
60%: Herbicidal action against AVEFA (AVEFA: Avena fatua [15]; dosage 80 g/ha)

Cc1ccc2c(c1)[C@H](Nc1ncc(C(C)(C)O)cn1)[C@@H](C)C2 [Example 1.4]
90%: Herbicidal action against ALOMY ([20]; dosage 80 g/ha) | Herbicidal action against HORMU (HORMU: Hordeum murinum [23]; dosage 80 g/ha) | Herbicidal action against ABUTH ([1]; dosage 320 g/ha) | Herbicidal action against ECHCG ([3]; dosage 320 g/ha) | Herbicidal action against LOLRI (LOLRI: Lolium rigidum [5]; dosage 320 g/ha) | Herbicidal action against POLCO ([7]; dosage 320 g/ha) | Herbicidal action against STEME (STEME: Stellaria media [16]; dosage 320 g/ha) | Herbicidal action against VIOTR (VIOTR: Viola tricolor [18]; dosage 80 g/ha)
50%: Herbicidal action against AVEFA (AVEFA: Avena fatua [15]; dosage 320 g/ha)
30%: Herbicidal action against ECHCG ([3]; dosage 80 g/ha)
100%: Herbicidal action against ABUTH ([19]; dosage 80 g/ha) | Herbicidal action against ABUTH ([19]; dosage 320 g/ha) | Herbicidal action against ALOMY ([20]; dosage 320 g/ha) | Herbicidal action against AMARE ([9]; dosage 80 g/ha) | Herbicidal action against AMARE ([9]; dosage 320 g/ha) | Herbicidal action against AVEFA (AVEFA: Avena fatua [21]; dosage 320 g/ha) | Herbicidal action against CYPES (CYPES; dosage 320 g/ha) | Herbicidal action against ECHCG ([22]; dosage 80 g/ha) | Herbicidal action against ECHCG ([22]; dosage 320 g/ha) | Herbicidal action against HORMU (HORMU: Hordeum murinum [23]; dosage 320 g/ha) | Herbicidal action against LOLRI (LOLRI: Lolium rigidum [24]; dosage 80 g/ha) | Herbicidal action against LOLRI (LOLRI: Lolium rigidum [24]; dosage 320 g/ha) | Herbicidal action against MATIN [10] | Herbicidal action against PHBPU (PHBPU: Ipomoea purpurea [25]; dosage 320 g/ha) | Herbicidal action against POLCO ([11]; dosage 80 g/ha) | Herbicidal action against POLCO ([11]; dosage 320 g/ha) | Herbicidal action against SETVI (SETVI: Setaria viridis [26]; dosage 80 g/ha) | Herbicidal action against SETVI (SETVI: Setaria viridis [26]; dosage 320 g/ha) | Herbicidal action against STEME (STEME: Stellaria media [27]) | Herbicidal action against VERPE (VERPE: Veronica persica [12]) | Herbicidal action against VIOTR (VIOTR: Viola tricolor [13]) | Herbicidal action against AMARE ([14]; dosage 320 g/ha) | Herbicidal action against PHBPU (PHBPU: Ipomoea purpurea [6]; dosage 320 g/ha)
40%: Herbicidal action against MATIN ([28]; dosage 80 g/ha)
60%: Herbicidal action against ABUTH ([1]; dosage 80 g/ha) | Herbicidal action against LOLRI (LOLRI: Lolium rigidum [5]; dosage 80 g/ha) | Herbicidal action against STEME (STEME: Stellaria media [16]; dosage 80 g/ha)
70%: Herbicidal action against ALOMY ([2]; dosage 320 g/ha) | Herbicidal action against POLCO ([7]; dosage 80 g/ha)
80%: Herbicidal action against AVEFA (AVEFA: Avena fatua [21]; dosage 80 g/ha) | Herbicidal action against CYPES (CYPES; dosage 80 g/ha) | Herbicidal action against PHBPU (PHBPU: Ipomoea purpurea [25]; dosage 80 g/ha) | Herbicidal action against MATIN ([28]; dosage 320 g/ha) | Herbicidal action against SETVI (SETVI: Setaria viridis [8]; dosage 320 g/ha)
20%: Herbicidal action against ALOMY ([2]; dosage 80 g/ha) | Herbicidal action against AVEFA (AVEFA: Avena fatua [15]; dosage 80 g/ha)

Cc1ccc2c(c1)[C@H](Nc1ncc(C(C)(C)O)c(C)n1)[C@@H](C)C2 [Example 1.6]
40%: Herbicidal action against LOLRI (LOLRI: Lolium rigidum [5]; dosage 80 g/ha)
100%: Herbicidal action against ABUTH ([19]; dosage 320 g/ha) | Herbicidal action against ALOMY ([20]; dosage 80 g/ha) | Herbicidal action against ALOMY ([20]; dosage 320 g/ha) | Herbicidal action against AMARE ([9]; dosage 80 g/ha) | Herbicidal action against AMARE ([9]; dosage 320 g/ha) | Herbicidal action against AVEFA (AVEFA: Avena fatua [21]; dosage 320 g/ha) | Herbicidal action against ECHCG ([22]; dosage 80 g/ha) | Herbicidal action against ECHCG ([22]; dosage 320 g/ha) | Herbicidal action against HORMU (HORMU: Hordeum murinum [23]; dosage 80 g/ha) | Herbicidal action against HORMU (HORMU: Hordeum murinum [23]; dosage 320 g/ha) | Herbicidal action against LOLRI (LOLRI: Lolium rigidum [24]; dosage 80 g/ha) | Herbicidal action against LOLRI (LOLRI: Lolium rigidum [24]; dosage 320 g/ha) | Herbicidal action against MATIN [10] | Herbicidal action against PHBPU (PHBPU: Ipomoea purpurea [25]; dosage 320 g/ha) | Herbicidal action against POLCO ([11]; dosage 80 g/ha) | Herbicidal action against POLCO ([11]; dosage 320 g/ha) | Herbicidal action against SETVI (SETVI: Setaria viridis [26]; dosage 80 g/ha) | Herbicidal action against SETVI (SETVI: Setaria viridis [26]; dosage 320 g/ha) | Herbicidal action against STEME (STEME: Stellaria media [27]) | Herbicidal action against VERPE (VERPE: Veronica persica [12]) | Herbicidal action against VIOTR (VIOTR: Viola tricolor [13]) | Herbicidal action against ALOMY ([2]; dosage 320 g/ha) | Herbicidal action against AMARE ([14]; dosage 80 g/ha) | Herbicidal action against AMARE ([14]; dosage 320 g/ha) | Herbicidal action against AVEFA (AVEFA: Avena fatua [15]; dosage 320 g/ha) | Herbicidal action against ECHCG ([3]; dosage 80 g/ha) | Herbicidal action against ECHCG ([3]; dosage 320 g/ha) | Herbicidal action against LOLRI (LOLRI: Lolium rigidum [5]; dosage 320 g/ha) | Herbicidal action against PHBPU (PHBPU: Ipomoea purpurea [6]; dosage 320 g/ha) | Herbicidal action against SETVI (SETVI: Setaria viridis [8]; dosage 320 g/ha) | Herbicidal action against STEME (STEME: Stellaria media [16]; dosage 80 g/ha) | Herbicidal action against STEME (STEME: Stellaria media [16]; dosage 320 g/ha)
90%: Herbicidal action against ABUTH ([19]; dosage 80 g/ha) | Herbicidal action against ABUTH ([1]; dosage 320 g/ha) | Herbicidal action against ALOMY ([2]; dosage 80 g/ha) | Herbicidal action against SETVI (SETVI: Setaria viridis [8]; dosage 80 g/ha) | Herbicidal action against VIOTR (VIOTR: Viola tricolor [18]; dosage 80 g/ha) | Herbicidal action against VIOTR (VIOTR: Viola tricolor [18]; dosage 320 g/ha)
20%: Herbicidal action against MATIN ([28]; dosage 80 g/ha)
80%: Herbicidal action against AVEFA (AVEFA: Avena fatua [21]; dosage 80 g/ha) | Herbicidal action against PHBPU (PHBPU: Ipomoea purpurea [25]; dosage 80 g/ha) | Herbicidal action against ABUTH ([1]; dosage 80 g/ha) | Herbicidal action against POLCO ([7]; dosage 320 g/ha) | Herbicidal action against VERPE (VERPE: Veronica persica [17])
